Results as given in US8461160B2, “Dihydropyrimidinones” (Hoffmann-La Roche, Inc., priority 2009, dated 2013).

These compounds were tested against T1, BACE2 (Homo sapiens, UniProt Q9Y5Z0) (assay: Fluorescent-peptide cleavage assay for BACE2 inhibition). Conditions: BACE2 enzyme ectodomain, fluorescent peptide WS EVNLD AEFRC-MR121, assay buffer pH 4.5, room temperature.
T1 construct: BACE2 enzyme ectodomain (derived from plasmid “pET17b-T7-hu proBACE2”) was prepared as described in Ostermann et al; T7 tag (N); made in house
T1 sequence (Q9Y5Z0 21-473 limits assumed): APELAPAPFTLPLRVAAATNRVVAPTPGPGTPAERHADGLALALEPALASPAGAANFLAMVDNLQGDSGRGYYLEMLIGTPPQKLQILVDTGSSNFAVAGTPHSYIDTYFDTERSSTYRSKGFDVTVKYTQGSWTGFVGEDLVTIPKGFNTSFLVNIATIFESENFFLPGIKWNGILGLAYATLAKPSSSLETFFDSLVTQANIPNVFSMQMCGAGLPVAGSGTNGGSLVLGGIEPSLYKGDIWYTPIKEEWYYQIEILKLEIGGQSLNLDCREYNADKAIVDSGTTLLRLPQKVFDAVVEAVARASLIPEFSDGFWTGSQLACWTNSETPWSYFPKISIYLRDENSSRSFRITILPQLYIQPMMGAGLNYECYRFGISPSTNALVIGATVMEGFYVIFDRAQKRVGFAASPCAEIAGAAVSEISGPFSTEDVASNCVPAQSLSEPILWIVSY
Type: biochemical
Method in brief: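 Pro-enzyme BACE2 was activated at 80 nM for 1 h at room temperature in 100 mM Na-acetate, 20 mM EDTA, 0.05% BSA, pH 4.5, then preincubated 10 min with compound. IC50 from sigmoidal dose-response fit.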

| SMILES | IC50 [nM] |
| --- | --- |
| CN1C(=O)C(C)(C)[C@@](C)(c2cc(NC(=O)c3ncco3)ccc2F)N=C1N [Example 117, Oxazole-2-carboxylic acid [3-((S)-2-amino-1,4,5,5-tetramethyl-6-oxo-1,4,5,6-tetrahydro-pyrimidin-4-yl)-4-fluoro-phenyl]amide] | 230 |
| CN1C(=O)C(OCc2ccccc2)[C@@](C)(c2cc(NC(=O)c3ccc(Cl)cn3)ccc2F)N=C1N (stereo partly drawn) [Example 122, 5-Chloro-pyridine-2-carboxylic acid [3-((R)-2-amino-5-benzyloxy-1,4-dimethyl-6-oxo-1,4,5,6-tetrahydro-pyrimidin-4-yl)-4-fluoro-phenyl]amide] | 10 |
| Cc1cc(C(=O)Nc2cccc([C@]3(C)CC(=O)N(C)C(N)=N3)c2)c(C)s1 [Example 3, 2,5-Dimethyl-thiophene-3-carboxylic acid [3-((S)-2-amino-1,4-dimethyl-6-oxo-1,4,5,6-tetrahydro-pyrimidin-4-yl)-phenyl]amide] | 86 |
| Cc1cc(Cl)cnc1C(=O)Nc1cccc([C@@]2(C)N=C(N)N(C)C(=O)C2(C)C)c1 [Example 95, 5-Chloro-3-methyl-pyridine-2-carboxylic acid [3-((R)-2-amino-1,4,5,5-tetramethyl-6-oxo-1,4,5,6-tetrahydro-pyrimidin-4-yl)-phenyl]amide] | 19 |
| CC[C@@]1(c2cccc(NC(=O)c3ccc(Cl)cn3)c2)CC(=O)N(C)C(N)=N1 [Example 39, 5-Chloro-pyridine-2-carboxylic acid [3-((S)-2-amino-4-ethyl-1-methyl-6-oxo-1,4,5,6-tetrahydro-pyrimidin-4-yl)-phenyl]-amide] | 11 |

Further lines, results first:

| IC50 [nM] | SMILES |
| --- | --- |
| 50 | CN1C(=O)C[C@@](C)(c2cccc(NC(=O)c3ccc(Cl)cc3)c2)N=C1N [Example 18, N-[3-((S)-2-Amino-1,4-dimethyl-6-oxo-1,4,5,6-tetrahydro-pyrimidin-4-yl)-phenyl]-4-chloro-benzamide] |
| 125 | CC[C@@]1(c2cccc(NC(=O)c3cccc(Cl)n3)c2)CC(=O)N(C)C(N)=N1 [Example 42, 6-Chloro-pyridine-2-carboxylic acid [3-((S)-2-amino-4-ethyl-1-methyl-6-oxo-1,4,5,6-tetrahydro-pyrimidin-4-yl)-phenyl]-amide] |
| 220 | Cc1cccc(C(=O)Nc2cccc([C@]3(C)CC(=O)N(C)C(N)=N3)c2)n1 [Example 32, 6-Methyl-pyridine-2-carboxylic acid [3-((S)-2-amino-1,4-dimethyl-6-oxo-1,4,5,6-tetrahydro-pyrimidin-4-yl)-phenyl]-amide] |
| 4200 | CN1C(=O)C[C@@](C)(c2cccc(NC(=O)c3ccc(=O)n(C)n3)c2)N=C1N [Example 21, 1-Methyl-6-oxo-1,6-dihydro-pyridazine-3-carboxylic acid [3-((S)-2-amino-1,4-dimethyl-6-oxo-1,4,5,6-tetrahydro-pyrimidin-4-yl)-phenyl]amide] |
